Test results taken from patent US11053230B2, “3-hydroxy-imidazolidin-4-one compounds as inhibitors of indoleamine 2,3-dioxygenase” (Netherlands Translational Research Center B.V., priority 2017, dated 2021).
“And” between values parts separate entries of the source, which are not always exact repeats. Equal values may be shown once.

The compounds below were run against T1, IDO1 (Homo sapiens, UniProt P14902) (assay: Biochemical IDO1 assay (NFK GreenScreen)). Conditions: NFK GreenScreen; 25 nM IDO1, 100 μM L-tryptophan; read-out: IC50, inhibitory potency on IDO1.
T1 construct: Recombinant full-length IDO1 (Seegers, N., et al.) and all other assay components were diluted in IDO1 reaction buffer; made in house
T1 sequence (P14902 whole entry): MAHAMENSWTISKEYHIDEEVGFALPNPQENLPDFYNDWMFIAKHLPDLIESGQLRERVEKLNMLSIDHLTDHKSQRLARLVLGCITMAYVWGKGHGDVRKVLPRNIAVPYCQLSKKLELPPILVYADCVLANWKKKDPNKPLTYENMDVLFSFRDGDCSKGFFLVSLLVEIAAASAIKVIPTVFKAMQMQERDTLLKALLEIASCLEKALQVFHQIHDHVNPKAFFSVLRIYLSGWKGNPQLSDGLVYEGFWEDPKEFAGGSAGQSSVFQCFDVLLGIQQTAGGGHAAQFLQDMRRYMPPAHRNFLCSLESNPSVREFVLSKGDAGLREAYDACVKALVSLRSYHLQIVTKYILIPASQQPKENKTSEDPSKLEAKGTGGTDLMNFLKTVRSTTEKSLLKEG
Experimental: Inhibition of IDO1 activity can be measured by determining the enzymatic conversion of L-tryptophan into N-formylkynurenine (NFK) in a reaction mixture containing IDO1 and test compound. The formation of NFK can be detected directly by, for instance, high-performance liquid chromatography (HPLC) methods, or by intrinsic fluorescence.
Compounds were serially diluted in dimethylsulfoxide (DMSO) and finally in IDO1 reaction buffer, consisting of 50 mM NaH2PO4, pH7.0, supplemented with 0.05% Tween-20 (cat. No. P7949; Sigma Aldrich) and 1% glycerol. Recombinant full-length IDO1 (Seegers, N., et al.) and all other assay components were diluted in IDO1 reaction buffer. […] Subsequently, 10 μl of 0.4 mM of the substrate L-tryptophan was added, i.e., the final concentration of L-tryptophan was 100 μM. The DMSO concentration in the assay was 0.3%. […] Incubation was continued for 60 min at room temperature. Then, 10 μl of NFK Green™ (NTRC, Oss, The Netherlands) was added, the plate was sealed, and the reaction was developed for 3 hours at 37° C. To determine the production of N-formyl kynurenine (NFK), the seal was removed and fluorescence was read on an EnVision multimode reader (Perkin Elmer, Waltham, Mass., USA). IC50 were calculated using XLfit™ software (ID Business Solutions, Ltd., Surrey, U.K.).
For `O=C1CN(C(=O)c2ccccc2Cl)C(c2cc(Br)cs2)N1O` (centres unmarked) [Example 55, 2-(4-Bromo-2-thienyl)-1-(2-chlorobenzoyl)-3-hydroxy-imidazolidin-4-one], the IC50 was at most 1000 nM. With `O=C1CN(C(=O)c2ccc(Oc3ccccc3)cc2)C(c2cc(Br)cs2)N1O` (centres unmarked) [Example 54, 2-(4-Bromo-2-thienyl)-3-hydroxy-1-(4-phenoxybenzoyl)imidazolidin-4-one] the IC50 was ≤ 5000 nM and 1000 to 5000 nM. `O=C1CN(C(=O)c2ccccc2F)C(c2csc(Br)c2)N1O` (centres unmarked) [Example 98, 2-(5-Bromo-3-thienyl)-1-(2-fluorobenzoyl)-3-hydroxy-imidazolidin-4-one] gave an IC50 of at most 1000 nM. Compound `Cn1cc(-c2ccc(F)c(C(=O)N3CC(=O)N(O)C3c3csc(Br)c3)c2F)cn1` (centres unmarked) [Example 124, 2-(5-Bromo-3-thienyl)-1-[2,6-difluoro-3-(1-methylpyrazol-4-yl)benzoyl]-3-hydroxy-imidazolidin-4-one] has an IC50 of at most 1000 nM. Work on `O=C1CN(C(=O)c2c(F)ccc(C(F)(F)F)c2F)C(c2cc(Br)cs2)N1O` (centres unmarked) [Example 76, 2-(4-Bromo-2-thienyl)-1-[2,6-difluoro-3-(trifluoromethyl)benzoyl]-3-hydroxy-imidazolidin-4-one] yielded an IC50 of at most 1000 nM. `COc1cc(F)c(C(=O)N2CC(=O)N(O)C2c2cc(Br)cs2)c(F)c1` (centres unmarked) [Example 51, 2-(4-Bromo-2-thienyl)-1-(2,6-difluoro-4-methoxy-benzoyl)-3-hydroxy-imidazolidin-4-one] showed an IC50 of at most 1000 nM. With `O=C1CN(C(=O)c2c(F)ccc(-c3ccccc3)c2F)C(c2cc(Br)cs2)N1O` (centres unmarked) [Example 122, 2-(4-Bromo-2-thienyl)-1-(2,6-difluoro-3-phenyl-benzoyl)-3-hydroxy-imidazolidin-4-one] the IC50 was at most 1000 nM. In the case of `Cn1cc(-c2ccc(F)c(C(=O)N3CC(=O)N(O)C3c3cc(Br)cs3)c2F)cn1` (centres unmarked) [Example 125, 2-(4-Bromo-2-thienyl)-1-[2,6-difluoro-3-(1-methylpyrazol-4-yl)benzoyl]-3-hydroxy-imidazolidin-4-one], the IC50 is reported as at most 1000 nM. With `CS(=O)(=O)NCC#Cc1cc(F)c(C(=O)N2CC(=O)N(O)C2c2cc(Br)cs2)c(F)c1` (centres unmarked) [Example 40, N-[3-[4-[2-(4-bromo-2-thienyl)-3-hydroxy-4-oxo-imidazolidine-1-carbonyl]-3,5-difluoro-phenyl]-prop-2-ynyl]methanesulfonamide] the IC50 was at most 1000 nM. Compound `O=C1CN(C(=O)c2c(F)cc(-c3ccccc3)cc2F)C(c2cc(Br)cs2)N1O` (centres unmarked) [Example 85, 2-(4-Bromo-2-thienyl)-1-(2,6-difluoro-4-phenyl-benzoyl)-3-hydroxy-imidazolidin-4-one] has an IC50 of at most 1000 nM. Work on `O=C1CN(C(=O)c2c(F)cccc2F)C(c2cc(Cl)cs2)N1O` (centres unmarked) [Example 33, 2-(4-Chloro-2-thienyl)-1-(2,6-difluorobenzoyl)-3-hydroxy-imidazolidin-4-one] yielded an IC50 of at most 1000 nM. With `[2H]c1sc(C2N(O)C(=O)CN2C(=O)c2c(F)cccc2F)cc1Br` (centres unmarked) [Example 111, 2-(4-Bromo-5-deuterio-2-thienyl)-1-(2,6-difluorobenzoyl)-3-hydroxy-imidazolidin-4-one] the IC50 was at most 1000 nM. Work on `[2H]C([2H])([2H])c1sc(C2N(O)C(=O)CN2C(=O)c2c(F)cccc2F)cc1Br` (centres unmarked) [Example 114, 2-[4-Bromo-5-(trideuteriomethyl)-2-thienyl]-1-(2,6-difluorobenzoyl)-3-hydroxy-imidazolidin-4-one] yielded an IC50 of at most 1000 nM. For `O=C1CN(C(=O)c2c(F)cc(-c3cccs3)cc2F)C(c2cc(Br)cs2)N1O` (centres unmarked) [Example 87, 2-(4-Bromo-2-thienyl)-1-[2,6-difluoro-4-(2-thienyl)benzoyl]-3-hydroxy-imidazolidin-4-one], the IC50 was at most 1000 nM. With `Cc1cc(C2N(O)C(=O)CN2C(=O)c2c(F)cccc2F)sc1Cl` (centres unmarked) [Example 112, 2-(5-Chloro-4-methyl-2-thienyl)-1-(2,6-difluorobenzoyl)-3-hydroxy-imidazolidin-4-one] the IC50 was at most 1000 nM. `O=C1CN(C(=O)C2CCCCC2)C(c2cc(Br)cs2)N1O` (centres unmarked) [Example 67, 2-(4-Bromo-2-thienyl)-1-(cyclohexanecarbonyl)-3-hydroxy-imidazolidin-4-one] was tested, and the IC50 was ≤ 5000 nM and 1000 to 5000 nM. For `CS(=O)(=O)c1ccc(-c2ccc(C(=O)N3CC(=O)N(O)C3c3cc(Br)cs3)cc2)cc1` (centres unmarked) [Example 71, 2-(4-Bromo-2-thienyl)-3-hydroxy-1-[4-(4-methylsulfonylphenyl)benzoyl]imidazolidin-4-one], the IC50 was ≤ 5000 nM and 1000 to 5000 nM. In the case of `O=C1CN(C(=O)c2c(F)ccc(-c3cccs3)c2F)C(c2cc(Br)cs2)N1O` (centres unmarked) [Example 131, 2-(4-Bromo-2-thienyl)-1-[2,6-difluoro-3-(2-thienyl)benzoyl]-3-hydroxy-imidazolidin-4-one], the IC50 is reported as at most 1000 nM. With `O=C1CN(C(=O)c2c(F)cccc2F)C(c2cc(C3CC3)cs2)N1O` (centres unmarked) [Example 109, 2-(4-Cyclopropyl-2-thienyl)-1-(2,6-difluorobenzoyl)-3-hydroxy-imidazolidin-4-one] the IC50 was ≤ 5000 nM and 1000 to 5000 nM. `O=C1CN(C(=O)c2c(F)c(F)c(F)c(F)c2F)C(c2cc(Br)cs2)N1O` (centres unmarked) [Example 63, 2-(4-Bromo-2-thienyl)-3-hydroxy-1-(2,3,4,5,6-pentafluorobenzoyl)imidazolidin-4-one] was tested, and the IC50 was at most 1000 nM. `O=C1CN(C(=O)c2c(F)cccc2F)C(c2cc(Br)co2)N1O` (centres unmarked) [Example 23, 2-(4-Bromo-2-furyl)-1-(2,6-difluorobenzoyl)-3-hydroxy-imidazolidin-4-one] was tested, and the IC50 was ≤ 5000 nM and 1000 to 5000 nM. `CC(C)C#Cc1cc(F)c(C(=O)N2CC(=O)N(O)C2c2cc(Br)cs2)c(F)c1` (centres unmarked) [Example 50, 2-(4-Bromo-2-thienyl)-1-[2,6-difluoro-4-(3-methylbut-1-ynyl)benzoyl]-3-hydroxy-imidazolidin-4-one] gave an IC50 of at most 1000 nM. With `N#Cc1csc(C2N(O)C(=O)CN2C(=O)c2c(F)cccc2Cl)c1` (centres unmarked) [Example 29, 5-[1-(2-Chloro-6-fluoro-benzoyl)-3-hydroxy-4-oxo-imidazolidin-2-yl]thiophene-3-carbonitrile] the IC50 was ≤ 5000 nM and 1000 to 5000 nM. For `O=C1CN(C(=O)c2c(F)ccc(B(O)O)c2F)C(c2cc(Br)cs2)N1O` (centres unmarked) [Example 126, [3-[2-(4-Bromo-2-thienyl)-3-hydroxy-4-oxo-imidazolidine-1-carbonyl]-2,4-difluoro-phenyl]boronic acid], the IC50 was ≤ 5000 nM and 1000 to 5000 nM. `O=C1CN(C(=O)c2ccccc2)C(c2cc(Br)cs2)N1O` (centres unmarked) [Example 12, 1-Benzoyl-2-(4-bromo-2-thienyl)-3-hydroxy-imidazolidin-4-one] was tested, and the IC50 was ≤ 5000 nM and 1000 to 5000 nM. `C#Cc1cc(F)c(C(=O)N2CC(=O)N(O)C2c2cc(Br)cs2)c(F)c1` (centres unmarked) [Example 38, 2-(4-Bromo-2-thienyl)-1-(4-ethynyl-2,6-difluoro-benzoyl)-3-hydroxy-imidazolidin-4-one] showed an IC50 of at most 1000 nM. `CS(=O)(=O)NCc1cc(F)c(C(=O)N2CC(=O)N(O)C2c2cc(Br)cs2)c(F)c1` (centres unmarked) [Example 91, N-[[4-[2-(4-Bromo-2-thienyl)-3-hydroxy-4-oxo-imidazolidine-1-carbonyl]-3,5-difluoro-phenyl]methyl]methanesulfonamide] was tested, and the IC50 was at most 1000 nM. `O=C1CN(C(=O)c2ccccc2C(F)(F)F)C(c2cc(Br)cs2)N1O` (centres unmarked) [Example 56, 2-(4-Bromo-2-thienyl)-3-hydroxy-1-[2-(trifluoromethyl)benzoyl]imidazolidin-4-one] was tested, and the IC50 was ≤ 5000 nM and 1000 to 5000 nM.

Same assay, conditions: stated in the synthesis examples; assay not named
With `C[C@@H](c1ccccc1)N1CC(=O)N(O)C1c1cc(Br)cs1` (single isomer, unassigned) [Example 118a] the “relative activity of the separated isomers” value was “less active isomer”.
